Data as given in ChEMBL document CHEMBL1156829 (Proc Natl Acad Sci U S A, 2008).

Legend:
[1] = NOVARTIS: Cytotoxicity against human hepatocellular carcinoma cell line (Huh7); assay type: toxicity, cell-based, Huh-7; details: Huh7 cells (hepatocellular carcinoma cell line)
Plasmodium falciparum [2] = experiment: NOVARTIS: Inhibition of Plasmodium falciparum W2 (drug-resistant) proliferation in erythrocyte-based infection assay; assay type: functional, organism-based; details: read-out: EC50
Plasmodium falciparum [3] = experiment: NOVARTIS: Inhibition of Plasmodium falciparum 3D7 (drug-susceptible) proliferation in erythrocyte-based infection assay; assay type: functional, organism-based

Structure (SMILES) | CC50 [1] [nM] | EC50 (Plasmodium falciparum [2]; Plasmodium falciparum, W2) [nM] | EC50 (Plasmodium falciparum [3]; Plasmodium falciparum, 3D7) [nM] | EC50 (Plasmodium falciparum [2]) [nM] | EC50 (Plasmodium falciparum [3]) [nM]
CCOC(=O)C1=C(C)NC2=C(C(=O)CC(c3ccc(Cl)cc3)C2)C1c1ccc(F)cc1 (configuration not stated) | > 100000 | 42.8 | 95 | – | –
Cc1ccc(Nc2cc(C)nc(NCc3ccccc3)n2)cc1 | 10500 | 132 | 112 | – | –
CC(C)CC[n+]1ccccc1C=Cc1ccc(N(C)C)cc1 | > 30000 | – | – | 150 | 82.9
O=c1ccc2cc(Cl)c(O)c(Cl)c2o1 | > 10000 | > 234 | > 1250 | – | –
CCCCSc1oc(C)nc1[P+](c1ccccc1)(c1ccccc1)c1ccccc1 | 2640 | 583 | 203 | – | –
COc1ccc2c(c1)-c1c(ssc1=S)C(C)(C)N2C(=O)c1cccc(Cl)c1 | > 100000 | > 1250 | 1090 | – | –
O=C(COc1ccccc1)NC(c1ccco1)c1cc(Cl)c2cccnc2c1O (configuration not stated) | > 100000 | 589 | 1490 | – | –
CCc1ccc(C(=O)Oc2ccccc2-c2nc3cc(C)ccn3c2NC(C)(C)CC(C)(C)C)cc1 | > 10000 | < 9.29 | 454 | – | –
Cc1ccc(Nc2cc(C)nc(NCc3ccccc3)n2)c(C)c1 | 6510 | 619 | 306 | – | –
CC(C)CNC(=O)c1cnc(NCCC2CCCN2C)nc1NCC1CCCCC1 (configuration not stated) | > 10000 | > 1250 | 920 | – | –
CC(C)(C)C(=O)Cn1ccc(=N)c2ccccc21 | > 100000 | 877 | 2030 | – | –
COc1ccc(/C=C(/C#N)C(=O)Nc2cccc3ccccc23)cc1 | > 10000 | > 241 | > 1160 | – | –
Nc1ccc2nc(-c3cccc(-c4nc5ccc(N)cc5s4)c3)sc2c1 | > 100000 | 995 | 283 | – | –
CC[C@H]1CN2CC[C@@H]1C[C@@H]2[C@@H](O)c1ccnc2ccc(OC)cc12 | > 10000 | 57.9 | 31.8 | – | –
CC(C)(C)c1ccc2c(c1)CN(C1CCCCC1)CO2 | 20800 | 36.9 | 99 | – | –
O=C(CN1CCCC1)N1N=C(c2cccs2)CC1c1ccc(F)cc1 (configuration not stated) | > 100000 | 1200 | > 12500 | – | –
CC(=O)N1CCNC1=Nc1c(Cl)nc(C)nc1Cl | > 10000 | 498 | 444 | – | –
CCCCCCCCCCCC(=O)N(C)CCCNc1ccnc2cc(Cl)ccc12 | 3010 | 27.3 | 223 | – | –
CCCCCc1ccc(C(=O)N(CCCC(C)Nc2cc(OC)cc3cccnc23)Cc2ccc(OC)c(OC)c2)cc1 (configuration not stated) | 5030 | 284 | 514 | – | –
CN(C)CCCNc1cc(-c2ccccc2)nc2ccccc12 | 18600 | 5150 | 123 | – | –
Cc1c(-c2ccccc2)c2ccccc2n1CCc1ccc(C)[n+](C)c1 | > 100000 | 690 | 647 | – | –
CCc1ccc(NC(=O)C2c3ccccc3C(=O)N(CC(C)C)C2c2cccs2)cc1 (configuration not stated) | > 100000 | 607 | 2300 | – | –
CCc1c(C#N)c(N)nc(SCC(=O)c2ccc(C)cc2C)c1C#N | > 100000 | 196 | 308 | – | –

Structure (SMILES) | CC50 [1] [nM] | EC50 (Plasmodium falciparum [2]; Plasmodium falciparum, W2) [nM] | EC50 (Plasmodium falciparum [3]; Plasmodium falciparum, 3D7) [nM] | EC50 (Plasmodium falciparum [2]) [nM] | EC50 (Plasmodium falciparum [3]) [nM]
CCS/C(Cl)=C(/NC(=O)c1ccccc1)[P+](c1ccccc1)(c1ccccc1)c1ccccc1 | > 10000 | 52 | 110 | – | –
O=[N+]([O-])c1cccc2c1nnn2C12CC3CC(CC(O)(C3)C1)C2 | > 100000 | 245 | 536 | – | –
CCCCNCCN1CCN(c2ccc3ccccc3c2)C[C@@H]1c1ccccc1 | 8160 | 2.45 | 34.5 | – | –
O=C1CSC(=S)N1c1cccc(Cl)c1 | > 100000 | > 12500 | 6870 | – | –
CC(Cc1ccccc1)NCCCCCCCNC(C)Cc1ccccc1 (configuration not stated) | 5900 | 105 | 268 | – | –
CC(CNC(=O)c1ccccc1)C(=O)OCC(=O)[C@@]12OC(C)(C)O[C@@H]1CC1C3CCC4=CC(=O)C=C[C@]4(C)[C@@]3(F)[C@@H](O)C[C@@]12C (some centres not stated) | 8220 | 159 | 165 | – | –
C/C=C(\Cl)C1=CC(=O)[C@]23C[C@H]2[C@@]2(C)CO[C@@]1(O)[C@@]3(O)O2 | > 10000 | > 1250 | 205 | – | –
COC(=O)c1cccc(NC(=O)C(=Cc2cccc([N+](=O)[O-])c2)NC(=O)c2ccccc2OC)c1 | > 100000 | 2910 | 994 | – | –
CCCN1CCC(N2C[C@@H](NC3CCCCCCC3)C[C@H]2C(=O)NCCc2ccc3c(c2)OCO3)CC1 | > 10000 | > 1300 | > 1360 | – | –
O=S(=O)(NCCNc1ncnc2scc(-c3ccccc3)c12)c1ccc(Cl)c(Cl)c1 | > 100000 | 307 | 290 | – | –
Cc1ccc(NC(=S)NCCO)cc1C | > 100000 | 1020 | 1810 | – | –
CN(C)c1cc(NC(=O)Nc2ccccc2)c2ccccc2n1 | 6780 | 332 | 148 | – | –
COc1ccc(-c2c[n+](Cc3ccccc3Cl)c3n2CCC3)cc1 | 52500 | 532 | 578 | – | –
CCC1CN2CCC1CC2C(O)c1ccnc2ccccc12 (configuration not stated) | > 100000 | 627 | 299 | – | –
C=C[C@H]1CN2CC[C@H]1C[C@H]2[C@H](OC(C)=O)c1ccnc2ccccc12 | > 10000 | 590 | 1460 | – | –
Cn1c(COc2ccc(Cl)cc2Cl)[n+](C)c2ccccc21 | > 10000 | 773 | 261 | – | –
Cc1cc(C)n(-c2ncc(-c3ccc([N+](=O)[O-])cc3)cn2)n1 | > 100000 | 3960 | > 12500 | – | –
Cc1nnc(SCC(=O)NCc2ccco2)n1-c1ccc(F)cc1 | > 100000 | 459 | > 8950 | – | –
Cc1ccc(-c2c[n+](CC(=O)c3ccccc3Cl)c3n2CCC3)cc1 | > 95900 | 1110 | 1010 | – | –
COc1ccccc1N1CCN(c2c3c(nc4nncn24)CCC3)CC1 | > 10000 | > 1250 | > 736 | – | –
CCCOC(=O)C1=C(C)NC2=C(C(=O)CC(c3ccc(OC)c(OC)c3)C2)C1c1ccc(O)c(OCC)c1 (configuration not stated) | > 100000 | 1280 | 2400 | – | –
CCN1CCN(C(=O)CS(=O)(=O)Cc2nc(-c3cccc(OC)c3)oc2C)CC1 | > 10000 | > 712 | > 1250 | – | –
c1ccc(OCCOc2ccc(Nc3ccnc4cc5ccccc5cc34)cc2)cc1 | 6110 | 97.5 | 124 | – | –

Structure (SMILES) | CC50 [1] [nM] | EC50 (Plasmodium falciparum [2]; Plasmodium falciparum, W2) [nM] | EC50 (Plasmodium falciparum [3]; Plasmodium falciparum, 3D7) [nM] | EC50 (Plasmodium falciparum [2]) [nM] | EC50 (Plasmodium falciparum [3]) [nM]
Cc1ccc(S(=O)(=O)c2c(COC(=O)c3cccc(C)c3)c(-c3ccccc3)nn2C)cc1 | > 100000 | 6970 | 8400 | – | –
N#Cc1c(N)nc(SCC(=O)c2ccc([N+](=O)[O-])cc2)c(C#N)c1-c1ccccc1 | > 100000 | 1840 | 4810 | – | –
Fc1ccccc1CCNc1ncnc2c1[nH]c1ccccc12 | 14300 | 150 | 165 | – | –
COc1ccc(OC)c(C2CC(=O)C3=C(C2)NC(=O)CC3c2ccc(OC)c(OC)c2)c1 (configuration not stated) | > 100000 | 118 | 616 | – | –
CC1=C(C(=O)Nc2ccccn2)C(c2ccc(O)cc2)n2ncnc2N1 (configuration not stated) | > 10000 | 561 | > 1250 | – | –
CC(C)CNC(=O)c1cnc(NCCCn2ccnc2)nc1NCC(C)C | > 10000 | 1610 | 768 | – | –
CC(C)CN(CC(=O)Nc1cc(C(C)(C)C)nn1-c1ccccc1)C(=O)c1cc(Cl)cc(Cl)c1 | > 10000 | < 16.7 | 1230 | – | –
COC(=O)CSc1nnc2c(n1)[nH]c1c(OC)ccc(Cl)c12 | > 10000 | 736 | 642 | – | –
FC(F)(F)c1cccc(NC(=S)N2CCCC2c2ccncc2)c1 (configuration not stated) | > 10000 | 370 | 327 | – | –
N#CN=C(N)c1sc(Nc2ccccc2)nc1N | 9370 | 2390 | 806 | – | –
COc1ccc(NS(=O)(=O)c2cccc(C(=O)Nc3ccccc3[N+](=O)[O-])c2)cc1 | 44400 | 4130 | > 12500 | – | –
CC(C)(C)c1ccc(-c2c[n+](-c3ccccc3)c3n2CCCS3)cc1 | 7870 | 313 | 221 | – | –
COc1ccc(-c2cncc3ccc(C(=O)NCc4ccncc4)nc23)cc1 | > 10000 | 1190 | > 1350 | – | –
O=c1c2ccccc2nc(C=Cc2ccc([N+](=O)[O-])o2)n1-c1ccc(Br)cc1 | > 100000 | 1920 | > 12300 | – | –
CC(=O)N(C1=C(N(C)C)C(=O)c2ccccc2C1=O)c1cccc(O)c1 | > 10000 | 58.2 | 46.7 | – | –
CCn1c(SCCCCNC(=O)c2cc([N+](=O)[O-])cc([N+](=O)[O-])c2)nc(-c2ccccc2)c1-c1ccccc1 | 6520 | 612 | 724 | – | –
CCCCCNC(=O)C1CSC(c2ccoc2)N1C(=O)c1ccccc1Cl (configuration not stated) | > 100000 | 1060 | 2320 | – | –
COc1ccc(NC(=O)N(CCCNS(=O)(=O)c2ccc([N+](=O)[O-])cc2)c2ccc(Oc3ccccc3)cc2)cc1 | > 7770 | 114 | 733 | – | –
COC(=O)C1=CN(Cc2ccc(OC)cc2)C=C(C(=O)OC)C1c1cccs1 | > 100000 | 602 | 5640 | – | –
COc1ccc(CNC2CCN(c3cccc(NC(=O)C4CC4)c3)CC2)cc1 | 65100 | 948 | 2950 | – | –
COc1cccc(-c2ccc(O)c(CN(C)CCc3ccc(OC)c(OC)c3)c2)n1 | 57900 | 52.3 | 337 | – | –
C=CCOc1cccc(/C=C2/NC(C)=C(C(=O)OCC)C2=O)c1 | > 10000 | > 933 | > 1040 | – | –
Nc1nc(N)c2c(OCc3ccc(C(F)(F)F)cc3)cccc2n1 | > 10000 | 972 | 782 | – | –
